Test system: human squamous carcinoma clone cancer cell line (SCC-1)
Assay: In-vitro effect on SCC-1 cell growth (cell viability by Coulter Counter)
Type: cell-based
Conditions: for Cell Count/mL: SCC-1 cells, two days after treatment at 37° C., untreated (0 μM) 5.70 × 10^5
Experimental: The in-vitro effects of sample #01 1700 on human squamous carcinoma clone cancer cell line (SCC-1).
All cell culture plasticware was purchased from Fisher. Media and antibiotics were purchased from Gibco and Sigma.
Cell viability using a Coulter Counter is used to quantify toxicity. SCC-^1 cells are grown in MEM media containing 10% Fetal Bovine Serum, 100 units/ml penicillin, 100 1μ/ml streptomycin, and 2.5 μg/ml fungizone at 37° C. in a 5% CO2 incubator. A 6 well dish is inoculated to 2.0×10^5 cells/well in a total volume of media of 2 ml. Incubation occurs overnight and the cells are ready for treatment the next day.
Stock solution of sample #01 1700 is sterile filtered with a 0.22 μm low protein binding syringe filter. Dilutions are made in fresh MEM-10% FBS.
Two days after treatment at 37° C., cells are harvested and quantified using a Coulter Counter. To harvest, all media is removed and 1 ml of 1× trypsin solution is added per well. Tryspin is in the well for approximately 5 minutes at 37° C. After 5 minutes, 1 ml of fresh MEM-10% FBS is added per well. Upon vigorous mixing to ensure breakup of aggregate cells, dilutions are made in Isoton®II ready for cell counts. Each well is counted twice. Thus, duplicate wells plus duplicate counts yield 4 cell counts per parameter above.

## CC(N)C(=O)O.CC(N)C(=O)O.[Cl][Pt][Cl] (stereo not drawn) [#011700, PtCl2[CH3CH(NH)2COOH]2]
20 μM #011700
  Cell Count/mL: 600000 mL⁻¹
30 μM #011700
  Cell Count/mL: 580000 mL⁻¹
40 μM #011700
  Cell Count/mL: 520000 mL⁻¹
50 μM #011700
  Cell Count/mL: 440000 mL⁻¹
60 μM #011700
  Cell Count/mL: 380000 mL⁻¹
20-60 μM, two days after treatment
  inhibition of the growth of SCC-1 cells in-vitro: shows inhibition of the growth

— patent US6458832B1, “Carboplatin analogs for cancer treatment” (Unitech Pharmaceuticals, Inc., priority 1999, dated 2002)
